Peptide text beside a SMILES is read from it.

For experiment [1], the system named is HIV-1. To be noted: for effect on HIV replication/infectivity (in words): 100 μM concentration; for p24 ng/ml Mean: 100 μM peptide, culture supernatant, day 7 after infection (FIG. 1), infected control 53.31.
Text: The tripeptide amides made according to EXAMPLE 1 were used in several HIV-1 infectivity assays to determine the ability of said tripeptide amides to inhibit HIV replication and/or infection. The efficiency of HIV-1 replication and status of HIV-1 infection was monitored by the concentration of p24 protein in the cell supernatant.
In a first set of experiments, approximately 3×10^5 H9 cells were infected with HIV-1 (e.g., 50–100 TCID50 per 300,000 H9 cells) to test the inhibitory effect of various tripeptide amides provided at 100 μM concentration.
By one approach, virus was added at 50–100 TCID50 to 3×10^5 H9 cells in a total volume of 500 μl containing RPMI 1640 medium supplemented with 10% (v/v) heat-inactivated fetal bovine serum (FBS), L-Glutamine, and Bensylpenicillin and Streptomycin (PS) (approximately 0.5 ml added to 500 ml RPMI medium), all available through LifeTechnology/GIBCO laboratories. This media is referred to as “RPMI++ media.” Cell counting was accomplished using 0.2% tryphanblue dissolved in PBS and a Bürker cell counter chamber. The virus and cells were then mixed gently on a vortex and were incubated at 37° C. for one hour and thirty minutes. Next, the cells were pelleted at 1200 rpm for 7 minutes and the supernatant was discarded.
(§1) The cells were then resuspended in RPMI++ at a concentration of 3×10^5 cells per ml. […] Cells were then incubated at 37° C. in a 5% CO2 enriched incubator. The medium was changed on day 4, 7, and finally day 11. The infection was stopped on day 11 or 14. During each media change, approximately 0.8 ml was replaced and 0.8 ml of the supernatant was transferred to a sterile 96 well plate and stored at −80° C. for p24 analysis.
(§2) The presence of p24 in the supernatants was determined using a p24 antigen detection method. […] By one approach, a capture-assay is employed, wherein the viral antigen is captured on a 96-well plate coated with a polyclonal anti-p24 rabbit serum (Swedish Institute for infectious disease control). The captured antigen is then detected with peroxidase conjugated anti-p24 mouse monoclonal antibodies. The conjugate is a pool of three different monoclonal antibodies. The analysis was performed with cell free supernatant directly from the cell culture or with supernatant that had been stored at −20° C. to −80° C.
Accordingly, a p24 standard was diluted (e.g., 4, 2, 1, 0.5, 0.25, 0.125, 0.0625 ng/ml) in RPMI++ media. […] In some cases, serial dilutions of the supernatants were made so as to more accurately detect p24 concentration. Coated plates (e.g., plates coated with a polyclonal anti-p24 rabbit serum) were washed 4 times with approximately 300–350 μl/well washing buffer (PBS with 0.05% Tween-20). The plates were inverted and tapped against absorbant paper after each wash to discard the superfluous washing buffer. Approximately, 100 μl of each sample and standard was added to individual wells on the plate. The plates were covered with tape and incubated at 37° C. for 2 hours or in the dark at room temperature over night.
Next, the plates were washed again as above. Approximately 100 μl/well of conjugate diluted in conjugate buffer (PBS with 0.5% Triton X-100, 0.5% Bovine Serum Albumin, 0.05% Tween-20, and 10% Fetal Bovine Serum). The plates were then covered with tape and incubated at 37° C. for 2 to 4 hours.
The test system of experiment [2] is HIV. The experiment in a line: Electron microscopy of HIV budding in treated HUT78 cells (nodular structures). The class given is cell-based.
For experiment [3], the system named is HIV-1. To be noted: for Mean p24: CEM cells, 100 μM, culture supernatant, day 11 after infection (FIG. 2), inf. control 1.62; for inhibition of HIV-1 replication (in words): infected CEM cells, 100 μM concentration.
Experimental: By one approach, virus was added at 50–100 TCID50 to 3×10^5 H9 cells in a total volume of 500 μl containing RPMI 1640 medium supplemented with 10% (v/v) heat-inactivated fetal bovine serum (FBS), L-Glutamine, and Bensylpenicillin and Streptomycin (PS) (approximately 0.5 ml added to 500 ml RPMI medium), all available through LifeTechnology/GIBCO laboratories. […] The virus and cells were then mixed gently on a vortex and were incubated at 37° C. for one hour and thirty minutes. Next, the cells were pelleted at 1200 rpm for 7 minutes and the supernatant was discarded.
as §1, §2
Accordingly, a p24 standard was diluted (e.g., 4, 2, 1, 0.5, 0.25, 0.125, 0.0625 ng/ml) in RPMI++ media. The standard, recombinant HIV-1 LAI gag p24, was purchased from NIBSC, Centralized Facility for AIDS Reagent, MRC. (order no EVA620). In some cases, serial dilutions of the supernatants were made so as to more accurately detect p24 concentration. Coated plates (e.g., plates coated with a polyclonal anti-p24 rabbit serum) were washed 4 times with approximately 300–350 μl/well washing buffer (PBS with 0.05% Tween-20). The plates were inverted and tapped against absorbant paper after each wash to discard the superfluous washing buffer. Approximately, 100 μl of each sample and standard was added to individual wells on the plate. The plates were covered with tape and incubated at 37° C. for 2 hours or in the dark at room temperature over night.
Next, the plates were washed again as above. Approximately 100 μl/well of conjugate diluted in conjugate buffer (PBS with 0.5% Triton X-100, 0.5% Bovine Serum Albumin, 0.05% Tween-20, and 10% Fetal Bovine Serum). The plates were then covered with tape and incubated at 37° C. for 2 to 4 hours. The OPD substrate (ABBOTT) was then prepared by adding 1 tablet of OPD per 5 ml OPD substrate solution (12.8 mg OPD (o-phenylenediamine. 2 HCl) per tablet and 1 tablet was dissolved in 5 ml citrate-phosphate buffer containing 0.02% hydrogen peroxidase). The solution was kept in the dark until it was used. The conjugate bound plates were then washed as above and, after the final wash, 100 μof OPD substrate solution/well was added and the plates were incubated at room temperature for 30 minutes.
The test system of experiment [4] is HIV. Briefly: Electron microscopy of HIV budding in treated ACH-2 cells (nodular structures). It is filed as cell-based.
Where [5] appears, read: HIV infected H9 cells, 100 μM, day 11 (FIG. 3).
Setting [6] is: ACH-2 cells, electron microscopy.

With `CC[C@H](C)[C@H](NC(=O)[C@H](C)N)C(=O)NCC(N)=O` [AIG-NH2, alanyl-isoleucyl-glycine-amide] (H-Ala-Ile-Gly-NH2), in experiment [1] (H9 cells), the “effect on HIV replication/infectivity (in words)” value was “almost completely inhibited HIV replication” and the “p24 ng/ml Mean” value came to 10.69 ng/mL.
Take `CC(C)C[C@H](NC(=O)[C@H](C)N)C(=O)NCC(N)=O` [ALG-NH2, alanyl-leucyl-glycine-amide] (H-Ala-Leu-Gly-NH2): in experiment [2], the “dense nodular structure attached to the outer part of viral envelope” value (shortened to “dense nodular structure attached”) came to 8% and the “treated cells carrying virus particles that had nodular structures on outer membrane” value was determined as 56%.
On to `C[C@H](N)C(=O)N1CCC[C@H]1C(=O)NCC(N)=O` [APG-NH2, alanyl-prolyl-glycine-amide] (H-Ala-Pro-Gly-NH2), for which, in experiment [1] (H9 cells), the “effect on HIV replication/infectivity (in words)” value is “almost completely inhibited HIV replication” and the “p24 ng/ml Mean” value was 1.13 ng/mL. Moreover, in experiment [3], the “Mean p24” value is 0.01 ng/mL and the “inhibition of HIV-1 replication (in words)” value is recorded as “inhibit HIV-1 replication”.
As for `NCC(N)=O` [G-NH2, glycine amide], in experiment [1] (H9 cells, 20 μM, p24 at day 11 after infection (FIG. 4)), the “inhibition of HIV replication at 20 μM (in words)” value is listed as “almost completely inhibited HIV replication”. The “dose dependence of inhibition of HIV replication (in words)” value in experiment [1] (H9 cells, 0.5–20 μM, p24 at day 11 after infection (FIG. 4)) is recorded as “inhibits HIV replication in a dose dependent manner”. Moreover, the “concentration at which significant inhibition of HIV replication was achieved” value in experiment [1] (H9 cells, p24 at day 11 after infection, 0.5–20 μM tested (FIG. 4)) is “less than 5 μM”. In addition, the “amount of p24 in culture supernatant compared with controls (in words)” value in experiment [1] (setting [5]) was “almost identical to that found in the non-infected control”. Also, in experiment [3], the “Mean p24” value was 0.04 ng/mL and the “inhibition of HIV-1 replication (in words)” value was “inhibited HIV-1 replication”.
Consider `NCC(=O)O` [G-OH, glycine], for which the “p24 present in the culture supernatant” value in experiment [1] (setting [5]) was “approximately 65 ng/ml”. Further, in experiment [3], the “Mean p24” value is 1.73 ng/mL and the “inhibition of HIV-1 replication (in words)” value is reported as “an inhibition of HIV-1 replication was not observed”.
As to `NCC(=O)N[C@@H](Cc1ccccc1)C(=O)NCC(N)=O` [GFG-NH2, glycyl-phenylalanyl-glycine-amide] (H-Gly-Phe-Gly-NH2), in experiment [1] (H9 cells), the “effect on HIV replication/infectivity (in words)” value is “almost completely inhibited HIV replication” and the “p24 ng/ml Mean” value is 0.45 ng/mL. Besides, in experiment [3], the “Mean p24” value was determined as 0.08 ng/mL and the “inhibition of HIV-1 replication (in words)” value was “inhibit HIV-1 replication”.
For the molecule `NCC(=O)NCC(=O)NCC(N)=O` [GGG-NH2, glycyl-glycyl-glycine-amide, reference compound] (H-Gly-Gly-Gly-NH2), in experiment [1] (H9 cells), the “effect on HIV replication/infectivity (in words)” value is “little affect on HIV infectivity” and the “p24 ng/ml Mean” value was found to be 61.82 ng/mL.
On the same counts, the results for `CC(C)C[C@H](NC(=O)CN)C(=O)NCC(N)=O` [GLG-NH2, glycyl-leucyl-glycine-amide] (H-Gly-Leu-Gly-NH2) are “almost completely inhibited HIV replication” and 2.71 ng/mL.
As for `NCC(=O)N1CCC[C@H]1C(=O)NCC(N)=O` [GPG-NH2, glycyl-prolyl-glycine-amide, reference compound] (H-Gly-Pro-Gly-NH2), the “nodules in cells not stimulated with PMA to produce virus (in words)” value in experiment [4] (ACH-2 cells, 1 mM, no PMA stimulation) is given as “did not show such nodules”. Further, in experiment [4] (setting [6]), the “dense nodular structure attached” value worked out at 2% and the “treated cells carrying virus particles that had nodular structures on outer membrane” value stood at 74%. Further, the “nodules upon combined treatment with protease inhibitor ritonavir (in words)” value in experiment [4] (PMA stimulated ACH-2 cells, GPG-NH2 1 mM plus ritonavir 2 μM) was “gave no such nodules”. In addition, in experiment [1] (H9 cells), the “effect on HIV replication/infectivity (in words)” value is “almost completely inhibited HIV replication” and the “p24 ng/ml Mean” value worked out at 0.42 ng/mL. In experiment [2], the “dense nodular structure attached” value is 4% and the “treated cells carrying virus particles that had nodular structures on outer membrane” value is recorded as 65%. Further, the “Mean p24” value in experiment [3] was found to be 0.07 ng/mL.
Take `NCC(=O)N[C@@H](Cc1c[nH]c2ccccc12)C(=O)NCC(N)=O` [GWG-NH2, glycyl-tryptophanyl-glycine-amide] (H-Gly-Trp-Gly-NH2): in experiment [1] (H9 cells), the “effect on HIV replication/infectivity (in words)” value was “almost completely inhibited HIV replication” and the “p24 ng/ml Mean” value was 0.61 ng/mL. Also, in experiment [3], the “Mean p24” value was 0.15 ng/mL and the “inhibition of HIV-1 replication (in words)” value is recorded as “inhibit HIV-1 replication”.
In the case of `NCC(=O)N[C@@H](Cc1ccc(O)cc1)C(=O)NCC(N)=O` [GYG-NH2, glycyl-tyrosyl-glycine-amide] (H-Gly-Tyr-Gly-NH2), in experiment [3], the “Mean p24” value stood at 0.02 ng/mL and the “inhibition of HIV-1 replication (in words)” value was “inhibited HIV-1 replication”.
For `CC(C)C[C@H](N)C(=O)N[C@@H](CC(N)=O)C(=O)N[C@@H](Cc1ccccc1)C(N)=O` [LNF-NH2, leucyl-asparagyl-phenylalanine-amide, reference compound] (H-Leu-Asn-Phe-NH2), in experiment [3], the “Mean p24” value was 1.45 ng/mL.
“fenylalanyl-leucyl-glycine-amide [FLG-NH2]”: in experiment [1] (H9 cells), the “effect on HIV replication/infectivity (in words)” value is on record as “almost completely inhibited HIV replication” and the “p24 ng/ml Mean” value turned out to be 0.25 ng/mL. Moreover, in experiment [3], the “Mean p24” value turned out to be 0.00 ng/mL and the “inhibition of HIV-1 replication (in words)” value was “inhibit HIV-1 replication”.
Turning to “prolyl-glycine-arginine-amide [PGR-NH2, reference compound]”, in experiment [1] (H9 cells), the “effect on HIV replication/infectivity (in words)” value is “little affect on HIV infectivity” and the “p24 ng/ml Mean” value is 55.93 ng/mL.
Turning to “α-tertiary-butylglycine-prolyl-glycine-amide [tbutGPG-NH2]”, in experiment [1] (H9 cells), the “effect on HIV replication/infectivity (in words)” value is given as “almost completely inhibited HIV replication” and the “p24 ng/ml Mean” value was 0.44 ng/mL. In experiment [3], the “Mean p24” value was -0.01 ng/mL and the “inhibition of HIV-1 replication (in words)” value is on record as “inhibit HIV-1 replication”.

Values taken from US7012129B2, “Antiviral composition comprising glycine amide” (priority 2001, dated 2006).
